# Laboratory results: US5821231A, “CS-1 peptidomimetics, compositions and methods of using same” (Cytel Corporation, priority 1995, dated 1998)
# Square brackets hold non-standard residues; d marks the D form. Peptide text beside a SMILES is read from it. * marks the point of attachment. PhAc = O=C(Cc1ccccc1)*
# Columns and labels:
# [1] = tested on: asthmatic sheep; test: Treatment of asthmatic sheep (Ascaris suum antigen, crossover); type: in vivo; settings: nebulized 1 mg/kg; FIG. 7
# Method: Six asthmatic sheep were treated in a double blind cross-over study. […] This study was carried out generally as described in Abraham et al., J. Clin. Invest., 93:776-787 (1994).
# The inhibitor compound used here was Compound ID No. 896.52, N-phenylacetyl-Leu-Asp-Phe-D-Pro-NH2, with a control compound that comprised the previously described compound having the same residues in a scrambled sequence. The vehicle for the nebulized compounds was phosphate-buffered saline. The compounds were administered at a dose of 1 mg/kg each, twice a day for three days prior to challenge, as well as 0.5 hours prior to and four hours post challenge on day 4. Because this was a crossover study, each animal received one or the other treatment, followed by a rest and then the other treatment. Each animal therefore served as its own control.
# Post challenge airway responsiveness was also assayed. Here, specific lung resistance, SRL, returned to baseline values 24 hours after challenge, however, the sheep were hyperresponsive to inhaled carbachol at that time.
# [2] = tested on: Porcine peripheral blood lymphocytes; test: In vitro porcine allograft model: transendothelial lymphocyte migration; type: cell-based; settings: 10 μg/ml in the medium; IL-1β-stimulated SMC
# Method: A similar study was carried out in vitro using porcine coronary artery endothelial cells (EC; as are present in the IEL) and smooth muscle cells (SMC; as are present in the medial layer of the artery). The two cell types were cultured using a membrane transwell system, with the SMC on the bottom layer in M-199 medium (Gibco Labs.). The SMC were stimulated with 100 ng/ml of interleukin-1β (IL-1β) for 24 hours prior to the start of the assay. Porcine peripheral blood lymphocytes were separated by Ficoll-Hypaque, radiolabeled and incubated overnight (about 18 hours) on the EC.
# [3] = tested on: BALB/c mice; test: Adoptive transfer delayed type hypersensitivity in mice (oxazolone); type: in vivo, mouse; settings: initial study; 6 mg/kg/day s.c. pump, 24-hour; FIG. 5
# Method: An adoptive transfer delayed-type hypersensitivity murine model has been developed using splenic T cells primed to oxazolone. This model is described in Elices et al., Clin. Exp. Rheum., 11(Suppl. 8):577-580 (1993), whose procedures were followed here.
# Thus, BALB/c mice were shaved on the belly and painted (50 μl on the belly and 5 μl on each paw) with three percent oxazolone in acetone/olive oil (4:1) at days zero and 1. At day 5, the mice were sacrificed, their spleens removed, and splenic T cells were obtained via nylon wool columns.
# Normal saline or saline containing 25×10^6 /animal of the oxazolone-immune T cells were separately injected into naive mice. The mice were then challenged by painting 10 μl of 2 percent oxazolone onto one ear each. All procedures were carried out under sterile conditions and in endotoxin-free buffers.
# Prior to challenge or saline injection, the mice were implanted with pumps that subcutaneously administered normal saline, normal saline containing the compound, Compound ID No. 896.52, N-phenylacetyl-Leu-Asp-Phe-D-Pro-NH2, or normal saline containing a compound with a scrambled sequence continually at 6 mg/kg/day for a 24-hour time period. The swelling diameter at the site of challenge or saline injection was measured with a microcaliper 24 hours thereafter.
# An expanded study was carried out as described above except that a scrambled compound control was not used as a control for further inhibitor compounds of Table 1 with larger groups of mice. Statistical analyses were carried out versus injection of vehicle alone.
# [4] = molecular target: VLA-4 (Homo sapiens, UniProt P05556+P13612); test: In vitro binding assay: 51Cr-labeled Jurkat cells to solid phase-bound CS-1 compound (SEQ ID NO:1); type: cell-based; set-up: inflammatory cells that contain the VLA-4 receptor [Jurkat cells; host or cells: Jurkat cells (human T lymphoblastic line)
# Method: Binding inhibition is measured here as a concentration of compound that inhibits one-half the binding between a standard number of Jurkat cells and a standard amount of CS-1 compound bound to the surface of a microtiter plate well. Those concentrations are conveniently expressed as IC50 values, smaller numbers indicating a lower concentration required to inhibit 50 percent binding and therefore greater potency. Further specifics of this assay are provided hereinafter.
# Jurkat cells (ATCC TIB 152), a human T lymphoblastic line, labeled with ^51 chromium were used to assay in vitro binding inhibition provided by various compounds discussed herein.
# The plates were prepared as follows: The 25-mer CS-1 compound (SEQ ID NO:1) dissolved at 0.5-1 μg/ml in a buffer of 0.1M NaHCO3 at pH 9.5 that also contained 10 μg/ml of bovine serum albumin (BSA) or a conjugate of the CS-1 compound linked to ovalbumin (CS-1-OVA) dissolved at 1-2.5 μg/ml in the same buffer was used as the substrate. Each well of the microtiter plates was coated with 50 μl of substrate or buffer alone for controls. The wells were permitted to dry out completely and were then rinsed twice with PBS at pH 7.4. Non-specific binding sites of each well were then blocked using 200 μl per well of RPMI/1 percent BSA for two hours at room temperature.
# Jurkat cells (3-5×10^6 cells) were placed into a 15 ml Falcon™ round-bottom tube with a cap. The tube was centrifuged, and the extra medium was then removed.
# Two hundred microliters of a ^51 Cr labeling solution were added to the centrifuged cells and maintained in contact with the cells for 90-120 minutes in a warm room. […] Longer contact times provide a greater amount of labeling but lower cell viability.
# The labeled cells are washed with (i) complete medium, (ii) 1 mM EDTA/PBS and then (iii) RPM1/1 percent BSA free of serum components. The cells are centrifuged after each washing. The cells are finally resuspended in serum-free RPMI/1 percent BSA at a concentration of 1×10^6 viable cells/ml, which provides a concentration that is diluted by one-half in the assay.
# Inhibitor compounds are prepared as stock solutions at 20 mg/ml in DMSO in 1.5 ml cryogenic screwcap vials, and were stored at -70° C. Using Flow™ round-bottom or V-bottom microtiter plates, the inhibitor compounds were prepared at twice the assay concentration in RPMI/1 percent BSA at 60 μl/well.
# Four initial dilutions were typically used.
# The ^51 Cr-labeled cells ([…] at 60 μl/well) were then admixed with the diluted compound solutions. The admixtures were maintained at room temperature (about 22° C.) for 30 minutes.
# One hundred microliters of each inhibitor compound/cell admixture were transferred to the substrate-coated wells. This was done in triplicate for each dilution. The resulting plates were incubated for 30 minutes at 37° C. and then washed gently three times with RPMI/1 percent BSA at 200 μl/well. Binding was observed microscopically, particularly after the second wash.
# The bound cells were then lysed by the addition of a 0.5 percent solution of sodium dodecylsulfate in water at 100 μl/well. The resulting solutions were then processed for counting and calculation of IC50 values following usual procedures.
# The data of Table 1 are normalized to the binding of SEQ ID NO: 3. […] Multiple assays for the same compound were averaged.
# Chain of VLA-4 (P13612 34-1032): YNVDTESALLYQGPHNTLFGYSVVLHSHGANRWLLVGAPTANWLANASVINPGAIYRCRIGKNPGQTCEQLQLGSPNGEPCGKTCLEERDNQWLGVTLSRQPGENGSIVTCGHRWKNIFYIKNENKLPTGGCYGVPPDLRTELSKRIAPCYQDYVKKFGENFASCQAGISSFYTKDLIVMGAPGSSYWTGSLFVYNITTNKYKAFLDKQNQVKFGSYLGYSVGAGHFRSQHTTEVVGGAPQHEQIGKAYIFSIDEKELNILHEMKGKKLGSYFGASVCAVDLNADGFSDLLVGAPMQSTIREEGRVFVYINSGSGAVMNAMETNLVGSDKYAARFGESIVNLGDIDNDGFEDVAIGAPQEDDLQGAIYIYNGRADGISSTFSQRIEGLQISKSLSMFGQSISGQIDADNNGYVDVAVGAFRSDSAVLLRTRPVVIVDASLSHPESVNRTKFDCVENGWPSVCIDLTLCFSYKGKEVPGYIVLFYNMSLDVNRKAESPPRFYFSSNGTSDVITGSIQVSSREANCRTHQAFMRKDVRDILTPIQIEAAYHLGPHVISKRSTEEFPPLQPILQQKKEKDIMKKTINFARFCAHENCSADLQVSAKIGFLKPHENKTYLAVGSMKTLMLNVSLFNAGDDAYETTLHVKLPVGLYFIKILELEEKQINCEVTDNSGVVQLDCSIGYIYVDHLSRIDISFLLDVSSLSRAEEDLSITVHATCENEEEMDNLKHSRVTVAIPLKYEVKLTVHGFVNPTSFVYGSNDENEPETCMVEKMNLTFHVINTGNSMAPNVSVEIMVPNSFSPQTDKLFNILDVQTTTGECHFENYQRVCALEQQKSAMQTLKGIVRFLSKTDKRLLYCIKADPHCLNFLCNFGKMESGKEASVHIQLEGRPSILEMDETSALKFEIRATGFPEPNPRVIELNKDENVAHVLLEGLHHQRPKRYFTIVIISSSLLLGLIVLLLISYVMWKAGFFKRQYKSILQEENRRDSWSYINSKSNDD
# Chain of VLA-4 (P05556 21-798): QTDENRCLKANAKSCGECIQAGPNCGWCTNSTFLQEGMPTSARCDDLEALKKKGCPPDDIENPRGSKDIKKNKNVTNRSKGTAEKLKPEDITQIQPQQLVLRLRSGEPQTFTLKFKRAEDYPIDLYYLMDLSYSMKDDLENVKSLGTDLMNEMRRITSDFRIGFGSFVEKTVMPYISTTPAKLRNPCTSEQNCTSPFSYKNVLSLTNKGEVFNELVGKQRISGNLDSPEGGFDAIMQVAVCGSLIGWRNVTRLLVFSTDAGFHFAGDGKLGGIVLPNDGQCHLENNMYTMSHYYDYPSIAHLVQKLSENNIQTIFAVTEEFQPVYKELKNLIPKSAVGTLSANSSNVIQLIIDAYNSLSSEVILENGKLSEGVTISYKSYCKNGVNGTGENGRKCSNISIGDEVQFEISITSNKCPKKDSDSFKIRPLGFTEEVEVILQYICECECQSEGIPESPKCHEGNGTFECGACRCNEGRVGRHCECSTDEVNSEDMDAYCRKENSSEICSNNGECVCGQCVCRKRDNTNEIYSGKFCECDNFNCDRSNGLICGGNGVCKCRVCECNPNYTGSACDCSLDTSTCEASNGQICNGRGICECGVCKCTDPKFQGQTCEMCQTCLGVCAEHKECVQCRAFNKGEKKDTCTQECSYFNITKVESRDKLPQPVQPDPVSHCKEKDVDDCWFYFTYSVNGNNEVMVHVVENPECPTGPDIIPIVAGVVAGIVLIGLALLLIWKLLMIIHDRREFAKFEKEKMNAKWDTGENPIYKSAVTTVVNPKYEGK
compound,measurement,setting,value
"CC(C)C[C@H](NC(=O)[C@H](CC(=O)O)NC(=O)Cc1ccccc1)C(=O)N[C@@H](Cc1ccccc1)C(=O)N1CCC[C@@H]1C(N)=O [N-phenylacetyl-Asp-Leu-Phe-D-Pro-NH2, reference compound] (PhAc-DLF[dP]-NH2)",change from baseline specific lung resistance (SRL) on challenge,[1],had an increase in that pulmonary function (SRL)
same,reduction of transendothelial lymphocyte migration,[2],did not reduce migration
same,reduction of inflammation (swelling diameter at challenge site),[3],no reduction of inflammation
same,Relative Potency,"[4]; binding inhibition potency (IC50) relative to standard compound of SEQ ID NO:3 = 1, about one-tenth or less assigned zero",0
same,VLA-4 binding inhibition (in words),[4]; compared with standard 10-mer of SEQ ID NO:3 or other peptides,no inhibition of VLA-4
